Measured values reported in article PMC5869189 (Frontiers in Immunology, 2018).
“And” between values parts separate entries of the source, which are not always exact repeats. Identical values can stand only once.

What was measured:
[1] = system: PBMC from healthy, seropositive donors; assay type: cell-based, human
[2] = system: HLA-DRB1*07; assay type: binding, human; parameters: reference not given here; conditions: 24–72 h at 37°C
[3] = system: HLA-DRB1*09; assay type: binding, human; parameters: reference not given here; conditions: 24–72 h at 37°C
[4] = target: T1, HLA-DRB1*11:01 (Homo sapiens, UniProt P01903+P01911, A100R/A169T/A87E/I96F/K41T/L162R/M171V/P40S/Q125H/Q178H/Q39Y/Q99D/R42S/S66Y/T262R/V115G/W38E); assay type: binding; parameters: reference not given here; conditions: 24–72 h at 37°C
T1 construct: Purified HLA-DR heterodimers derived from the relevant EBV B-lymphoblastoid cell lines; endogenous in cells

[5] = target: HLA-DRB1*12:02 (Homo sapiens, UniProt P01903+P01911, A100R/A169T/D57E/D86V/F55L/H45Y/I96F/K41T/L162R/M171V/P40S/Q125H/Q178H/Q39Y/Q99D/R42G/S66L/T262R/V114A/V67L/W38E/Y59H/Y61H/Y89S); assay type: binding; parameters: reference not given here; conditions: 24–72 h at 37°C
[6] = target: T2, HLA-DRB1*15:01 (Homo sapiens, UniProt P01903+P01911); assay type: binding; parameters: reference not given here; conditions: 24–72 h at 37°C
T2 construct: Purified HLA-DR heterodimers derived from the relevant EBV B-lymphoblastoid cell lines; endogenous in cells

[7] = target: T3, HLA-DRB1*15:02 (Homo sapiens, UniProt P01903+P01911, V115G); assay type: binding; parameters: reference not given here; conditions: 24–72 h at 37°C
T3 construct: Purified HLA-DR heterodimers derived from the relevant EBV B-lymphoblastoid cell lines; endogenous in cells

[8] = system: HLA-DRB1*04; assay type: binding, human; parameters: reference not given here; conditions: 24–72 h at 37°C
[9] = system: PBMC from melioidosis patients and control donors; assay type: cell-based, human
[10] = system: HLA class-II heterodimers (HLA DRB1*04, 07, 09, 11:01, 12:02, 15:01, 15:02); assay type: binding, human
[11] = system: HLA-DQB1*0602 and HLA-DQB1*0302; conditions: cited from earlier work

T1 sequence (P01903 26-254, other chains not shown): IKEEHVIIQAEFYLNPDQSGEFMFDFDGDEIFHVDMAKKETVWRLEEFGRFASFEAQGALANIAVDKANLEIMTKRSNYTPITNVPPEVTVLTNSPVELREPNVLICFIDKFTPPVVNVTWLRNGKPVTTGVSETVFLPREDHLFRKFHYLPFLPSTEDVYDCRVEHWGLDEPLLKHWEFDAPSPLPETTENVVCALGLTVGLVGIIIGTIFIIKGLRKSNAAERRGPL
T3 sequence (P01903 26-254, other chains not shown): as above

| Sequence | % Responders [1] | Median SFC/10^6 PBMCs (IFN-g) [1] | further results |
| --- | --- | --- | --- |
| AAKIQGMNVEVVVATGYTDR [BPSL2522_P13] | 100% | 291 | Elispot, Median SFC/10^6 PBMCs of HLA donors [1]: 362 SFC/10^6 PBMCs and 488 SFC/10^6 PBMCs and 487 SFC/10^6 PBMCs and 578 SFC/10^6 PBMCs and 351 SFC/10^6 PBMCs and 534 SFC/10^6 PBMCs; HLA binding, relative HLA binding affinity [2]: 11; HLA binding, relative HLA binding affinity [3]: 42; HLA binding, relative HLA binding affinity [4]: 23; HLA binding, relative HLA binding affinity [5]: 5; HLA binding, relative HLA binding affinity [6]: 5; HLA binding, relative HLA binding affinity [7]: 667 |
| KDFTFVCPTEIVEFAKLAKQ [BPSL2096_P6] | 82.4% and 82% | 333 | HLA binding, relative HLA binding affinity [8]: 9; HLA binding, relative HLA binding affinity [2]: 0.3; HLA binding, relative HLA binding affinity [3]: 18; HLA binding, relative HLA binding affinity [4]: 43; HLA binding, relative HLA binding affinity [5]: 25; HLA binding, relative HLA binding affinity [6]: 7; HLA binding, relative HLA binding affinity [7]: 222; IFNγ response, acute septicemic melioidosis compared with recovered individuals (Figure 3) [9]: lower during acute disease; HLA class-II binding across the panel (in words) [10]: moderate to high affinity; Presentation through HLA-DQ [11]: can be presented also through HLA-DQB1*0602 and HLA-DQB1*0302 |
| NQNPQITASVVGYTDSTGSA [BPSL0999_P14] | 95.7% and 96% | 373 | Elispot, Median SFC/10^6 PBMCs of HLA donors [1]: 583 SFC/10^6 PBMCs and 417 SFC/10^6 PBMCs and 601 SFC/10^6 PBMCs and 460 SFC/10^6 PBMCs and 567 SFC/10^6 PBMCs and 588 SFC/10^6 PBMCs and 489 SFC/10^6 PBMCs; HLA binding, relative HLA binding affinity [8]: 33; HLA binding, relative HLA binding affinity [2]: 30.2; HLA binding, relative HLA binding affinity [3]: 37; HLA binding, relative HLA binding affinity [4]: 189; HLA binding, relative HLA binding affinity [5]: >136; HLA binding, relative HLA binding affinity [6]: 1; HLA binding, relative HLA binding affinity [7]: 542 |
| PAGKQKLDELAAKIQGMNVE [BPSL2522_P12] | 97.1% and 97% | 308 | HLA binding, relative HLA binding affinity [8]: >145; HLA binding, relative HLA binding affinity [2]: 333; HLA binding, relative HLA binding affinity [3]: >689; HLA binding, relative HLA binding affinity [4]: 77; HLA binding, relative HLA binding affinity [5]: 40; HLA binding, relative HLA binding affinity [6]: >270; HLA binding, relative HLA binding affinity [7]: >3 333 |
| RGVAANRLSAQGMGASNPIA [BPSL0999_P18] | 93.6% and 94% | 375 | Elispot, Median SFC/10^6 PBMCs of HLA donors [1]: 617 SFC/10^6 PBMCs and 415 SFC/10^6 PBMCs and 456 SFC/10^6 PBMCs and 487 SFC/10^6 PBMCs and 634 SFC/10^6 PBMCs and 616 SFC/10^6 PBMCs and 441 SFC/10^6 PBMCs; HLA binding, relative HLA binding affinity [8]: 82; HLA binding, relative HLA binding affinity [2]: 11; HLA binding, relative HLA binding affinity [3]: 367; HLA binding, relative HLA binding affinity [4]: 72; HLA binding, relative HLA binding affinity [5]: 14; HLA binding, relative HLA binding affinity [6]: 157; HLA binding, relative HLA binding affinity [7]: >3 333 |
| RLNALPNPPRQIPYYAQSTY [BPSS0530_P40] | 81.4% | 219 | – |
| RMRLANLDAFDPLPPAMLYH [BPSS0530_P26] | 88.4% | 240 | – |
| RQTAMSNAQTLASQLVAAGQ [BPSL0280_P14] | 89.7% | 565 | – |
| RRGGRPRTERWWALRPVERR [BPSS1599_P18] | 97.9% | 172 | – |
| RVEVEVVGTQEVQKTTVPAQ [BPSL2522_P23] | 97.1% | 361 | – |
| RVRAELAARQARSGPVAPPW [BPSS1599_P24] | 87.5% | 119 | – |
| SALSATDQANATAMVAQINA [BPSL3319_P27] | 86.7% | 259 | – |
| SAQSVPASRQAVNDNWVNGT [BPSL2522_P3] | 88.6% | 267 | – |
| SDDPLPPPLETELAQAGDIA [BPSS0530_P9] | 90.7% | 283 | – |
| SLRRAQAVKSYLVSKGVPAN [BPSL2522_P16] | 82.9% | 317 | – |
| SLSRRNELRAEAVELAKKLK [BPSS1599_P3] | 89.6% | 156 | – |
| SNHGWGFTLLDLDQDGLGLG [BPSS0530_P5] | 93.0% | 224 | – |
| SQKITYQADTLFDFDKAVLK [BPSL2522_P10] | 91.4% | 297 | – |
| SQVANDNAVAAQVAGNLRT [BPSS1531_P41] | 80.0% | 197 | – |
| SVLAQEAPARQHRIDMHGMR [BPSS1531_P31] | 88.6% | 182 | – |

| Sequence | % Responders [1] | Median SFC/10^6 PBMCs (IFN-g) [1] | further results |
| --- | --- | --- | --- |
| TAACVVLGGAFAYWHHRAKV [BPSS1599_P21] | 100.0% | 170 | – |
| TELAQAGDIACLALQAARTG [BPSS0530_P10] | 93.0% | 280 | – |
| TEQPDGSLKLNVPSSVTFAT [BPSL0999_P10] | 93.6% | 382 | – |
| TKLGAVEQIQKLVDLQLPGA [BPSS0530_P38] | 90.7% | 305 | – |
| TPEIRQDAEFGRQVYEATLC [BPSS1525_P11] | 84.6% | 184 | – |
| TPLADDSVVRTQLLARLQWL [BPSS1599_P34] | 97.9% | 147 | – |
| TQLLARLQWLDAAAKLERLL [BPSS1599_P35] | 93.8% | 145 | – |
| VDKQWNLKKLIFAFSAAMPA [BPSS0530_P35] | 90.7% | 243 | – |
| VGLQAGAQSKAIVFLFMTQD [BPSL1445_P12] | 93.9% | 321 | – |
| VGTQEVQKTTVPAQ [BPSL2522_P22] | 97.1% | 270 | – |
| VGYTDSTGSAAHNQTLSQNR [BPSL0999_P15] | 97.9% | 367 | – |
| VLPGVDEELADRELGYDHDD [BPSS0530_P29] | 93.0% | 234 | – |
| VPLTAPTANDTPLADDSVVR [BPSS1599_P33] | 83.3% | 147 | – |
| VRPAFIEALGDAARATGLPG [BPSS1525_P15] | 89.7% | 220 | – |
| VVVATGYTDRIGSDKYNDRL [BPSL2522_P14] | 100% | 290 | HLA binding, relative HLA binding affinity [8]: >145; HLA binding, relative HLA binding affinity [2]: >336; HLA binding, relative HLA binding affinity [3]: >689; HLA binding, relative HLA binding affinity [4]: >278; HLA binding, relative HLA binding affinity [5]: >136; HLA binding, relative HLA binding affinity [6]: 10; HLA binding, relative HLA binding affinity [7]: 1 826; IFNγ response compared between cohorts (Figure 2) [9]: lower in recovered patients than in seropositive healthy donors; IFNγ response, acute septicemic melioidosis compared with recovered individuals (Figure 3) [9]: lower during acute disease |
| WARNGSNVRYLLVVEPGATL [BPSS1599_P30] | 91.7% | 155 | – |
| WKSQLRSDEVALPIARVAGR [BPSS0530_P17] | 97.7% | 274 | – |
| WSDGMLIETQHFQQLERHLA [BPSS0530_P2] | 90.7% | 260 | – |
| WWALRPVERRLSPRAALIAA [BPSS1599_P19] | 95.8% | 169 | – |
| YLVSKGVPANKVYTEGKGKR [BPSL2522_P17] | 82.9% | 312 | – |
